Test results: patent US20180177749A1, “USE OF CYP EXPRESSION TO DIRECT THERAPEUTIC INTERVENTION IN CANCER” (REGENTS OF THE UNIVERSITY OF MINNESOTA, priority 2016, published 2018)
Like-named read-outs stand apart in the source and are kept apart here.

What was measured:
MDA-MB-231 cells [1] = experiment: JC-1 mitochondrial membrane potential staining, MDA-MB-231; type: cell-based, human; conditions: HBB 20 μM 4 hours, (±)-14,15-EET 1 μM
Method: Cells were grown in chamber slides at 37° C. with 5% CO2 and treated with DMSO or HBB for 4 hours before JC-1 dye was added for the MCF-7 or MDA-MB-231 cell line. […] Images of red fluorescence (590 nm) and green fluorescence (530 nm) were acquired using an Olympus 1X70 microscope fitted with an Olympus DP70 digital camera (Olympus, Tokyo, Japan).

MDA-MB-231 cells [2] = experiment: Measurement of OCR and ECAR, MDA-MB-231; type: cell-based, human; conditions: t-AUCB 2.5, 5 μM, HBB 20, 40 μM
Method: Cells were maintained in growth medium consisting of 10% FBS at 37° C. with 5% CO2 and seeded at 100,000 cells per well in XF24-well cell culture microplates (Seahorse Bioscience, North Billirica, Mass.). Concentrated stocks of HBB were prepared in DMSO. HBB was diluted to 10× working concentration in XF assay medium (a non-buffered medium including 2 mM L-glutamine but no sodium bicarbonate (buffering agent), glucose, or sodium pyruvate). Assays were performed in the XF Extracellular Flux Analyzer (Seahorse Bioscience that measures uptake and excretion of metabolic end products in real time). Oxygen consumption rate (OCR) and extracellular acidification rate (ECAR) were measured using an XF Assay Kit. OCR is reported in pmoles/minute and ECAR in mpH/minute. Before analysis, the cells were switched from culture medium to XF assay medium. After baseline measurements, 75 μl of HBB prepared in assay medium was injected into each well to reach final working concentrations. After addition of HBB, OCR and ECAR were measured at 18-minute intervals. […] There were 6 replicates for the studies of the 3-18 and 4-14 cell lines.

MCF-7 cells = experiment: Cellular ATP by luminescent assay; type: cell-based, human
Method: Cells were seeded in 96-well tissue culture plate in 100 μL medium per well. After treatment with either vehicle or testing compound for an appropriate length of time, 50 μL mammalian cell lysis solution was added to each well and the plate was shaken for 5 minutes on an orbital shaker. To each well, 50 μL luminescent substrate and luciferase solution were then added. After incubation in the dark for 10 minutes, the luminescence measured. Cellular ATP levels were then calculated against a standard curve generated with ATP standards of known concentration.

MDA-MB-231 = experiment: MTT cell proliferation assay, MDA-MB-231; type: cell-based, human
Method: The human breast cancer cell lines MCF-7, T47D, and MDA-MB-231 described above were grown in Minimal Essential Medium (MCF-7), RPMI 1640 with insulin (0.2 U/mL) and 1 mM Na pyruvate (T47D) or DMEM containing 10% fetal bovine serum (FBS) (MDA-MB-231), which was defined as complete medium (CM). Cells were grown at 37° C. in a 5% CO2 incubator. […] MTT was then added (5 mg/ml), and after 2 h of incubation, the plates were centrifuged. The supernatant was removed; DMSO was added, and the absorbance was read at 540 nm with a BioTek 96-well plate reader.

MDA-MB-435/LCC6 = experiment: Cell growth inhibition, MDA-MB-435/LCC6; type: cell-based; conditions: MDA-MB-435/LCC6, Triple negative
MCF-7 xenograft = tested on: MCF-7 xenograft
Method: 17-β-estradiol (E2) was given in drinking water at 1 μM beginning the day of tumor implantation. […] Tumors were collected from each mouse after sacrifice and endpoint tumor weights were measured.
N=20 mice per arm for each study; error bars represent SEM.
In the HBB dose optimization model, mammary fat pad injection was performed with the MCF-7 cell line as described above, and tumors were allowed to grow until an average tumor volume of 50 mm^3. Mice were randomized, and tumor growth was monitored. Estradiol (1 μM) was present in the drinking water as above. Cremophor was administered weekly in the vehicle and HBB groups so that paclitaxel could be used in subsequent chemotherapy synergy studies (unpublished data). Mice were dosed at 6 mg/kg/day ip 4 days of 7 with no more than 2 consecutive days dosing and weighed daily. […] Tumors were harvested at the endpoint of the study following sacrifice by isoflurane anesthesia followed by cervical dislocation. Organs were harvested for histopathological assay of end organ toxicity.

CYP3A4 vs CYP2C8 = molecular target: T1, CYP3A4 vs CYP2C8 (Homo sapiens, UniProt P08684); experiment: Recombinant microsomal CYP-mediated EET biosynthesis (CYP3A4 Supersomes); type: biochemical; conditions: human, CYP3A4 or CYP2C8 Supersomes (recombinant microsomes), pH 7.4, probe arachidonic acid (AA), 5 μM; CYP3A4 vs CYP2C8; read-out: selectivity for CYP3A4 epoxygenase activity
T1 construct: host or cells: insect cells (microsomes)
Source text: (§1) Samples were submitted to liquid chromatography-electrospray ionization/multiple reaction monitoring/mass spectrometry (LC-ESI/MRM/MS) analysis in a Thermo Electron Quantum Discovery Max triple quadrupole mass spectrometer (Thermo Finnigan, San Jose, Calif.) coupled with an Agilent 1100 HPLC (Santa Clara, Calif.), using argon as the collision gas. […] A standard curve was obtained by linear regression of the peak area ratio of authentic EET regioisomers against internal standards. The amount of EETs in samples was calculated according to the standard curve. The (±)-5,6-EET regioisomer was not measured because it undergoes rapid internal degradation.
(§2) CYP3A4 or 2C8 Supersomes™ (BD Biosciences) were incubated at 37° C. for 30 min in the presence of AA (5 μM) in […] Tris-HCl, pH 7.4, containing 1 mm EDTA and 1 mm NADPH. Reactions were terminated by adding methylene chloride (0.5 ml). Samples were centrifuged at 3,000 rpm for 10 min and 150 μl of the organic phases were evaporated under nitrogen. Samples were reconstituted in 20 μl of MeOH containing [^13C20]EET internal standards and submitted to a Thermo Electron Quantum Discovery Max triple quadrupole mass spectrometer (Thermo Finnigan, San Jose, Calif.) coupled with an Agilent 1100 HPLC (Santa Clara, Calif.) for analysis. […] Concentrations of EETs generated by CYP Supersomes™ were calculated by linear regression against standard curve generated with EET standards.

CYP3A4 = molecular target: T2, CYP3A4 (Homo sapiens, UniProt P08684); experiment: as above; type: biochemical; conditions: for IC50: microsomal CYP3A4
T2 construct: host or cells: insect cells (microsomes)
Source text: as §1, §2

[3] = Plasma concentration after ip dosing; type: in vivo, mice; conditions: 1 hour after the daily dose, 4 mg/kg/day ip

T2 sequence (P08684 whole entry): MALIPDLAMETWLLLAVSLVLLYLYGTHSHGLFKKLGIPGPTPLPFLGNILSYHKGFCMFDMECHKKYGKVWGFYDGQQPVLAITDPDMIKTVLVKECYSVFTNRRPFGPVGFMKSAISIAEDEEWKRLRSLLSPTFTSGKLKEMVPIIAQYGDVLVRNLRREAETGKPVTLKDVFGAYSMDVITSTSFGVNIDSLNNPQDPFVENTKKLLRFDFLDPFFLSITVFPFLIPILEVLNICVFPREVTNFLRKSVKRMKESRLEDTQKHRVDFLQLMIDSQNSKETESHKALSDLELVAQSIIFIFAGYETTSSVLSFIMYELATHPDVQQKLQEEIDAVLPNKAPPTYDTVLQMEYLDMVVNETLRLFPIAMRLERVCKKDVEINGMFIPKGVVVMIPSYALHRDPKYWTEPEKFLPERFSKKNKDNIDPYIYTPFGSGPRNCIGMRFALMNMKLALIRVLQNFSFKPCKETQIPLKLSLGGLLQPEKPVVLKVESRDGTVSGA
T1 sequence (P08684 whole entry): as above

CCCCCCNC(=N)NC(=N)NCc1ccccc1 [HBB, N1-hexyl-N5-benzyl-biguanide]
mitochondrial membrane potential (ΔΨm), JC-1 (MDA-MB-231 cells [1]): caused mitochondrial depolarization
extracellular acidification rate (ECAR) (MDA-MB-231 cells [2]): least inhibition of ECAR
oxygen consumption rate (OCR) (MDA-MB-231 cells [2]): significant vs. vehicle
ATP depletion (MCF-7 cells; 6 hours): 30%
total cellular ATP levels (MCF-7 cells; 6 hours of treatment, metformin 5 mM): reduced
IC50 (MDA-MB-231; Homo sapiens, MDA-MB-231, Triple negative): 20.5 µM
growth inhibition abrogated by concurrent (±)-14,15-EET (MDA-MB-231; MDA-MB-231, (±)-14,15-EET 1 μM, 24 hours): no dependence on (±)-14,15-EET
IC50 (MDA-MB-435/LCC6): 12.5 µM
end point tumor weights lower than control (MCF-7 xenograft; 4 mg/kg/day ip): 34%
tumor growth (MCF-7 xenograft; 4 mg/kg/day ip): slower growth
end point tumor weight (mean±SEM) (MCF-7 xenograft; 4 mg/kg/day ip, n=19): 220 ± 35 mg
tumor growth (MCF-7 xenograft; 6 mg/kg ip 4 of 7 days (24 mg/kg/week), from 50 mm^3): significant reduction of tumor growth
end point tumor weights lower than PBS group (MCF-7 xenograft; 24 mg/kg/week ip): 48%
end point tumor weight (mean±SEM) (MCF-7 xenograft; 24 mg/kg/week ip, n=13): 127 ± 16 mg
weight decline vs. control (MCF-7 xenograft; mouse, in vivo, ip, 6 mg/kg/day): > 5%
selectivity ratio at 30 min (CYP3A4 vs CYP2C8): 5 to 7
Ki (CYP3A4; CYP3A4 epoxygenase activity): 9 µM
IC50 (CYP3A4; read-out: IC50, CYP3A4 synthesis of (±)-8,9-EET): 9.5 µM
IC50 (CYP3A4; read-out: IC50, CYP3A4 synthesis of (±)-11,12-EET): 8 µM
plasma concentration [3]: 530 nM
